The values below come from US8691816B2, “Pyrrole inhibitors of S-nitrosoglutathione reductase as therapeutic agents” (N30 Pharmaceuticals, Inc., priority 2008, dated 2014).

In this assay the target is T1, GSNOR (GSNO Reductase) (Homo sapiens, UniProt P11766).
T1 construct: made in house; host or cells: E. coli (arabinose induction)
T1 sequence (P11766 whole entry): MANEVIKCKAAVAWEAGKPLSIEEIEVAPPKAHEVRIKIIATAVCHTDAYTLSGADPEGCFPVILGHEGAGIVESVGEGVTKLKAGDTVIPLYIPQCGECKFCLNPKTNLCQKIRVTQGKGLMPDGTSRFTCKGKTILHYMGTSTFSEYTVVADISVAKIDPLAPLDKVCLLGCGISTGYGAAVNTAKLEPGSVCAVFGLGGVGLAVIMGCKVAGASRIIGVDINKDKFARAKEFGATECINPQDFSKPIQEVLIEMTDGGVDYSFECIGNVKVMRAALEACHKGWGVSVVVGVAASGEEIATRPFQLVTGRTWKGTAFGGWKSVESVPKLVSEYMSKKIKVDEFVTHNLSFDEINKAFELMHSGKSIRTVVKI
As to the kind of experiment: GSNOR assay (in vitro inhibition of GSNOR activity, NADH absorbance at 340 nm). Format: biochemical. Conditions: 0.240 mM GSNO, 0.300 mM NADH, 0.5 μg/mL GSNO Reductase, pH 7.4, 25° C. How it is done:
Various compounds were tested in vitro for their ability to inhibit GSNOR activity. Representative compounds and their corresponding GSNOR activity are described in a paragraph before Table 1 above. GSNOR expression and purification is described in Biochemistry 2000, 39, 10720-10729.
GSNOR fermentation: Pre-cultures were grown from stabs of a GSNOR glycerol stock in 2XYT media containing 100 ug/ml ampicillin after an overnight incubation at 37° C. Cells were then added to fresh 2XYT (4 L) containing ampicillin and grown to an OD (A600) of 0.6-0.9 at 37° C. before induction. GSNOR expression was induced with 0.1% arabinose in an overnight incubation at 20° C.
GSNOR Purification: E. coli cell paste was lysed by nitrogen cavitation and the clarified lysate purified by Ni affinity chromatography on an AKTA FPLC (Amersham Pharmacia). The column was eluted in 20 mM Tris pH 8.0/250 mM NaCl with a 0-500 mM imidazole gradient. […] GSNOR was recovered in the flowthrough fraction and for crystallography is further purified by Q-Sepharose and Heparin flowthrough chromatography in 20 mM Tris pH 8.0, 1 mM DTT, 10 uM ZnSO4.
GSNOR assay: GSNO and Enzyme/NADH Solutions are made up fresh each day. The Solutions are filtered and allowed to warm to room temperature. GSNO Solution: 100 mM NaPO4 (pH 7.4), 0.480 mM GSNO. 396 μL of GSNO Solution is added to a cuvette followed by 8 μL of test compound in DMSO (or DMSO only for full reaction control) and mixed with the pipette tip. Compounds to be tested are made up at a stock concentration of 10 mM in 100% DMSO. 2 fold serial dilutions are done in 100% DMSO. 8 μL of each dilution are added to an assay so that the final concentration of DMSO in the assay is 1%. The concentrations of compounds tested range from 100 to 0.003 μM. Enzyme/NADH Solution: 100 mM NaPO4 (pH 7.4), 0.600 mM NADH, 1.0 μg/mL GSNO Reductase. 396 μL of the Enzyme/NADH Solution is added to the cuvette to start the reaction. The cuvette is placed in the Cary 3E UV/Visible Spectrophotometer and the change in 340 nm absorbance/min at 25° C. is recorded for 3 minutes. The assays are done in triplicate for each compound concentration. IC50's for each compound are calculated using the standard curve analysis in the Enzyme Kinetics Module of SigmaPlot.
Final assay conditions: 100 mM NaPO4, pH 7.4, 0.240 mM GSNO, 0.300 mM NADH, 0.5 μg/mL GSNO Reductase and 1% DMSO. Final volume: 800 μL/cuvette.
With `CCc1nccn1-c1ccc(-c2ccc(CCC(=O)O)n2-c2ccc(C(N)=O)cc2C)cc1` [Compound 69, 3-(1-(4-carbamoyl-2-methylphenyl)-5-(4-(2-ethyl-1H-imidazol-1-yl)phenyl)-1H-pyrrol-2-yl)propanoic acid], the IC50 is under 1000 nM.
`COc1ccc(-c2ccc(CCC(=O)O)n2-c2ccc(O)cc2Cl)cc1` [Compound 80, 3-(1-(2-chloro-4-hydroxyphenyl)-5-(4-methoxy-phenyl)-1H-pyrrol-2-yl)propanoic acid]: the IC50 was under 1000 nM.
The same measure for `COc1ccc(-c2ccc(CCC(=O)O)n2-c2ccc(C(N)=O)cc2C)c(C)c1` [Compound 110, 3-(1-(4-carbamoyl-2-methylphenyl)-5-(4-methoxy-2-methylphenyl)-1H-pyrrol-2-yl)propanoic acid]: under 1000 nM; for `COc1ccc(-c2ccc(CCC(=O)O)n2-c2ccc(C(N)=O)cc2C)c(Cl)c1` [Compound 118, 3-(1-(4-carbamoyl-2-methylphenyl)-5-(2-chloro-4-methoxy-phenyl)-1H-pyrrol-2-yl)propanoic acid]: under 1000 nM; for `Cc1cc(C(N)=O)ccc1-n1c(CCC(=O)O)ccc1-c1cc(-n2ccnc2)cs1` [Compound 120, 3-(5-(4-(1H-imidazol-1-yl)thiophen-2-yl)-1-(4-carbamoyl-2-methylphenyl)-1H-pyrrol-2-yl)propanoic acid]: under 1000 nM.
The same measure for `Cc1cc(C(N)=O)ccc1-n1c(CCC(=O)O)ccc1-c1cc(-n2ccnc2C)cs1` [Compound 144, 3-(1-(4-carbamoyl-2-methylphenyl)-5-(4-(2-methyl-1H-imidazol-1-yl)thiophen-2-yl)-1H-pyrrol-2-yl)propanoic acid]: under 1000 nM; for `COc1cc(-n2ccnc2C)ccc1-c1ccc(CCC(=O)O)n1-c1ccc(C(N)=O)cc1C` [Compound 146, 3-(1-(4-carbamoyl-2-methylphenyl)-5-(2-methoxy-4-(2-methyl-1H-imidazol-1-yl)phenyl)-1H-pyrrol-2-yl)propanoic acid]: under 1000 nM; for `Cc1cc(C(N)=O)ccc1-n1c(CCC(=O)O)ccc1-c1ccc(Cl)cc1C(N)=O` [Compound 152, 3-(1-(4-carbamoyl-2-methylphenyl)-5-(2-carbamoyl-4-chloro-phenyl)-1H-pyrrol-2-yl)propanoic acid]: under 1000 nM.
The compound `Cc1cc(NS(C)(=O)=O)ccc1-n1c(CCC(=O)O)ccc1-c1cc(Br)cs1` [Compound 183, 3-(5-(4-bromothiophen-2-yl)-1-(2-methyl-4-(methyl-sulfonamido)-phenyl)-1H-pyrrol-2-yl)propanoic acid] had an IC50 of under 5000 nM.
Regarding `Cc1cc(S(N)(=O)=O)ccc1-n1c(CCC(=O)O)ccc1-c1ccc(-n2ccnc2C)s1` [Compound 194], the IC50 was under 1000 nM.
The same measure for `COc1ccc(-c2ccc(CCC(=O)O)n2-c2ccc3ncccc3c2)cc1` [Compound 216, 3-(5-(4-methoxyphenyl)-1-(quinolin-6-yl)-1H-pyrrol-2-yl)propanoic acid]: under 1000 nM; for `Cc1cc2nc[nH]c2cc1-n1c(CCC(=O)O)ccc1-c1ccc(-n2ccnc2)cc1` [Compound 219, 3-(5-(4-(1H-imidazol-1-yl)phenyl)-1-(5-methyl-1H-benzo[d]imidazol-6-yl)-1H-pyrrol-2-yl)propanoic acid]: under 1000 nM.
In the case of `COc1ccc(-c2ccc(CCC(=O)O)n2-c2ccc(C(N)=O)c(Cl)c2)cc1` [Compound 221, 3-(1-(4-carbamoyl-3-chlorophenyl)-5-(4-methoxyphenyl)-1H-pyrrol-2-yl)propanoic acid], the IC50 is under 1000 nM.
`COc1ccc(-c2ccc(CCC(=O)O)n2-c2ccc3ccncc3c2)cc1` [Compound 223, 3-(1-(isoquinolin-7-yl)-5-(4-methoxyphenyl)-1H-pyrrol-2-yl)propanoic acid] had an IC50 of under 5000 nM.
`COc1ccc(-c2ccc(CCC(=O)O)n2-c2ccc(F)c(C#N)c2)cc1` [Compound 226, 3-(1-(3-cyano-4-fluorophenyl)-5-(4-methoxyphenyl)-1H-pyrrol-2-yl)propanoic acid] showed an IC50 of under 5000 nM.
For the compound `COc1ccc(-c2ccc(CCC(=O)O)n2-c2ccc(O)c(F)c2)cc1` [Compound 229, 3-(1-(3-fluoro-4-hydroxyphenyl)-5-(4-methoxyphenyl)-1H-pyrrol-2-yl)propanoic acid], the IC50 is under 5000 nM.
The compound `COc1ccc(-c2ccc(CCC(=O)O)n2-c2ccc3c(N)noc3c2)cc1` [Compound 231, 3-(1-(3-aminobenzo[d]isoxazol-6-yl)-5-(4-methoxyphenyl)-1H-pyrrol-2-yl)propanoic acid] showed an IC50 of under 1000 nM.
With `O=C(O)CCc1ccc(-c2ccccc2)n1-c1ccc(O)c(C(=O)O)c1` [Compound 232, 5-(2-(2-carboxyethyl)-5-phenyl-1H-pyrrol-1-yl)-2-hydroxybenzoic acid], the IC50 was under 5000 nM.
Consider `Cc1nccn1-c1ccc(-c2ccc(CCC(=O)O)n2-c2ccc3oc(=O)[nH]c3c2)cc1` [Compound 235, 3-(5-(4-(2-methyl-1H-imidazol-1-yl)phenyl)-1-(2-oxo-2,3-dihydrobenzo[d]oxazol-5-yl)-1H-pyrrol-2-yl)propanoic acid], for which the IC50 is under 1000 nM.
`Cc1nccn1-c1ccc(-c2ccc(CCC(=O)O)n2-c2ccc3[nH]c(=O)oc3c2)cc1` [Compound 236, 3-(5-(4-(2-methyl-1H-imidazol-1-yl)phenyl)-1-(2-oxo-2,3-dihydrobenzo[d]oxazol-6-yl)-1H-pyrrol-2-yl)propanoic acid]: the IC50 was under 5000 nM.
For `COc1ccc(-c2ccc(CCC(=O)O)n2-c2ccc(C(N)=O)s2)cc1` [Compound 237, 3-(1-(5-carbamoylthiophen-2-yl)-5-(4-methoxyphenyl)-1H-pyrrol-2-yl)propanoic acid], the IC50 is under 5000 nM.
Next, `COc1ccc(-c2ccc(CCC(=O)O)n2-c2ncc(C(N)=O)s2)cc1` [Compound 238, 3-(1-(5-carbamoylthiazol-2-yl)-5-(4-methoxyphenyl)-1H-pyrrol-2-yl)propanoic acid]: under 5000 nM; `Cc1nccn1-c1ccc(-c2ccc(CCC(=O)O)n2-c2ccc(O)cc2)cc1` [Compound 249, 3-(1-(4-hydroxyphenyl)-5-(4-(2-methyl-1H-imidazol-1-yl)phenyl)-1H-pyrrol-2-yl)propanoic acid]: under 1000 nM.
Turning to `Cc1nccn1-c1csc(-c2ccc(CCC(=O)O)n2-c2ccc(O)cc2)c1` [Compound 255, 3-(1-(4-hydroxyphenyl)-5-(4-(2-methyl-1H-imidazol-1-yl)thiophen-2-yl)-1H-pyrrol-2-yl)propanoic acid], the IC50 is under 1000 nM.
`COc1cc(Cl)ccc1-c1ccc(CCC(=O)O)n1-c1ccc(O)cc1` [Compound 262, 3-(5-(4-chloro-2-methoxyphenyl)-1-(4-hydroxyphenyl)-1H-pyrrol-2-yl)propanoic acid] showed an IC50 of under 1000 nM.
Next, `COc1cc(Cl)ccc1-c1ccc(CCC(=O)O)n1-c1ccc(C(N)=O)cc1` [Compound 264, 3-(1-(4-carbamoylphenyl)-5-(4-chloro-2-methoxyphenyl)-1H-pyrrol-2-yl)propanoic acid]: under 1000 nM; `Cc1nccn1-c1csc(-c2ccc(CCC(=O)O)n2-c2ccc(NS(C)(=O)=O)cc2)c1` [Compound 267, 3-(5-(4-(2-methyl-1H-imidazol-1-yl)thiophen-2-yl)-1-(4-(methylsulfonamido)-phenyl)-1H-pyrrol-2-yl)propanoic acid]: under 1000 nM.
For the compound `Cc1nccn1-c1ccc(-c2ccc(CCC(=O)O)n2-c2ccc(O)cc2)s1` [Compound 273, 3-(1-(4-hydroxyphenyl)-5-(5-(2-methyl-1H-imidazol-1-yl)thiophen-2-yl)-1H-pyrrol-2-yl)propanoic acid], the 50% inhibitory concentration (IC50) was under 1000 nM.

What is called IC50 is the concentration that gives 50% inhibition.
